Columns and labels:
[1] = target: T1, LXRα ligand binding domain (Homo sapiens, UniProt Q13133); experiment: Ligand Sensing Assay for LXRα agonist activity; format: biochemical; conditions: 1 μM; over a background reading of 10000 fluorescence units
T1 construct: His tag; made in house; host or cells: E. coli BL21(DE3) by analogy with Test Method 1 (inferred)
T1 sequence (Q13133 183-447): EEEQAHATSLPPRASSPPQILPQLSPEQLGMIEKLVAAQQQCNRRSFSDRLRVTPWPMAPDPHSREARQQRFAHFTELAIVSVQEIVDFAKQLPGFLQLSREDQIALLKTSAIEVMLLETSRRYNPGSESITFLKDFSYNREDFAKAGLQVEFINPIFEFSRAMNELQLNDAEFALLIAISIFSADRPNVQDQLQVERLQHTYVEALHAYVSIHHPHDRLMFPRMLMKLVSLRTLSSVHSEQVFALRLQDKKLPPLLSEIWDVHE
T1 sequence (Q15788 676-700 partner): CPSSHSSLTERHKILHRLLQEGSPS
Description: (§1) Test Method 1: Ligand Sensing Assay (LiSA) for LXRβ Agonist Activity
(§2) This assay measures the recruitment of a peptide derived from the coactivator protein, SRC1, to the agonist-bound LXR[…]. Peptides derived from other nuclear receptor cofactors may be similarly prepared and assayed.
The biotinylated protein was incubated for 20–25 minutes at a concentration of 5 nM in assay buffer (50 mM NaF, 50 mM MOPS-pH 7.5, 0.1 mg/ml FAF-BSA, 0.05 mM CHAPS, 10 mM DTT) with equimolar amounts of streptavidin-AlloPhycoCyanin (APC, Molecular Probes). […]
49 uL of the protein/peptide mixture was added to each well of an assay plate containing 1 ul of test compound serial diluted in 100% DMSO. […] The plates were incubated at room temp 2-hours and then counted on a Wallac Victor V fluorescent plate reader. […]
The assay for LXRα was run according to the procedures of Test Method 1, above using his-tagged LXRα ligand binding domain (amino acids 183–447 of Genbank accession number U22662, with the 14th amino acid corrected to A from R). In this assay 1 μM 24(S),25-epoxycholesterol gave a reading of 20000 fluorescence units over a background reading of 10000 fluorescence units.

[2] = target: T2, human LXRβ ligand binding domain (Homo sapiens, UniProt P55055); experiment: Ligand Sensing Assay (LiSA) for LXRβ agonist activity (SRC1 peptide recruitment); format: biochemical; conditions: 1 μM; over a background reading of 10000 fluorescence units
T2 construct: made in house; host or cells: E. coli BL21(DE3), vector pRSETa
T2 sequence (P55055 184-460 limits assumed): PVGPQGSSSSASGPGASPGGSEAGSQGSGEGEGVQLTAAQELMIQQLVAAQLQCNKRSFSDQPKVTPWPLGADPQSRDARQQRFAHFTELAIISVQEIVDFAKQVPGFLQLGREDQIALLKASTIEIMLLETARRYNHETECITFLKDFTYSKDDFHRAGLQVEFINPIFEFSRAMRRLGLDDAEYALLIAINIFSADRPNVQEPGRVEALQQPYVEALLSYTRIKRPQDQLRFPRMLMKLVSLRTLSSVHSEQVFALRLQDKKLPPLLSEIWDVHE
T2 sequence (Q15788 676-700 partner limits assumed): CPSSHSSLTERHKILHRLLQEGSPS
Source text: as §1, §2
To generate the human LXRβ ligand binding domain suitable for LiSA, a modified polyhistidine tag (MKKGHHHHHHG) (SEQ ID No. 1) was fused in frame to the human LXRβ ligand binding domain (amino acids 185–461 of Genbank accession number U07132) and subcloned into the expression vector pRSETa (Invitrogen) under the control of an IPTG inducible T7 promoter. The human LXRβ ligand binding domain was expressed in E. coli strain BL21(DE3). Ten-liter fermentation batches were grown in Rich PO4 media with 0.1 mg/mL Ampicillin at 25° C. for 12 hours, cooled to 9° C. and held at that temperature for 36 hours to a density of OD600=14. […]
Typically 25–50 g of cell paste is resuspended in 250–500 mL TBS, pH 8.0 (25 mM Tris, 150 mM NaCl). […] After washing to baseline absorbance with equilibration buffer, the column is washed with approximately one column volume of TBS pH […] containing 95 mM imidazole. […] After washing to baseline absorbance with the dilution buffer the protein is eluted with a gradient from 50–500 mM NaCl. […]

C[C@H](CC[C@@H]1OC1(C)C)[C@H]1CC[C@H]2[C@@H]3CC=C4C[C@@H](O)CC[C@]4(C)[C@H]3CC[C@]12C [24(S),25-epoxycholesterol] showed a reading [1] of 20000 fluorescence units and a reading [2] of 20000 fluorescence units.

Source: patent publication US7247748B2, “Amide compounds and methods of using the same” (SmithKline Corporation, priority 2002, dated 2007)
